Source: PMC11449324, “Functional comparison of human and murine equilibrative nucleobase transporter 1” (PLOS ONE, 2024)

Legend:
[1] = target: T1, hENBT1 (SLC43A3-encoded human ENBT1) (Homo sapiens, UniProt Q8NBI5); test: Radiolabelled substrate uptake (oil-stop, 2 s) in HEK293-hSLC43A3 cells; assay type: cell-based
T1 construct: Oligonucleotides corresponding to the coding region of SLC43A3 (NM_001278201) or slc43a3 (NM_021398); expressed in transfected cells; HEK293-hSLC43A3
T1 sequence (Q8NBI5 1-491): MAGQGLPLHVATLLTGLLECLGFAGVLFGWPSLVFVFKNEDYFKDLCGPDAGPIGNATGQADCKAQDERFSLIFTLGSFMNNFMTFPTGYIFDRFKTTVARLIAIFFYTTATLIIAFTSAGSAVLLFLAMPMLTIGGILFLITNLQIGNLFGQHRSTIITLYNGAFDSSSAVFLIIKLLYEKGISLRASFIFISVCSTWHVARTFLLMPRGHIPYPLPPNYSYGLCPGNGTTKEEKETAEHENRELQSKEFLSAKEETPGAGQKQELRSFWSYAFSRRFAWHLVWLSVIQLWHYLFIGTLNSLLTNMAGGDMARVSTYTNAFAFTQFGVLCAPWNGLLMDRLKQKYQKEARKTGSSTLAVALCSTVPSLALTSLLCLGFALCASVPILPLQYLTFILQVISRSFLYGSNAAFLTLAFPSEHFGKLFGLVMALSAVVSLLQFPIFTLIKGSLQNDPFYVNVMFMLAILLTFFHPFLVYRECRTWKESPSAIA
Description: (§1) Harvested cells were suspended in nominally sodium-free N-methyl-D-glucamine (NMG) buffer (140 mM NMG, 5 mM KCl, 4.2 mM KHCO3, 0.36 mM K2HPO4, 0.44 mM KH2PO4, 0.5 mM MgCl2, 1.3 mM CaCl2, 10 mM HEPES, pH 7.4), to minimize potential contribution of sodium-dependent concentrative nucleoside transporter-mediated uptake. Additionally, cells were incubated for 15 minutes at room temperature with 10 μM dipyridamole (DY), an equilibrative nucleoside transporter (ENT) inhibitor, to block equilibrative nucleoside transporter–mediated uptake. The substrate uptake assay was initiated by adding 250 μL cell suspension to 250 μL [^3H] labeled substrate, layered over 21:4 silicone:mineral oil (200 μL) in 1.5 mL microcentrifuge tubes (conducted at room temperature). The uptake reaction was terminated after 2 seconds by centrifugation of the cells through the oil layer at ~10,000 g. […] The resulting cell pellet was digested in 250 μL 1 M NaOH overnight (~16 hours), with 220 μL aliquots of digested cells assessed for radioactive content using standard liquid scintillation counting techniques in a Beckman Coulter LS6500 scintillation system (Brea, CA).
(§2) In transfected-HEK293 cell lines, total uptake was defined as uptake of radiolabeled substrate in cells overexpressing recombinant hENBT1 or mENBT1. […] ENBT1-mediated uptake was calculated as total uptake minus the non-mediated uptake. […]

HEK293-mslc43a3 cells = test: MTT cell viability assay, HEK293-mslc43a3; assay type: cell-based, human
Description: (§3) Transfected-HEK293, MOLT-4, and L1210 cells were seeded into 24-well plates at a density of 1.1x10^5 cells per well in complete culture medium. […] Medium containing no cells was used to determine spontaneous MTT reduction (background). In transfected-HEK293 cells, media was removed via a vacuum-powered aspirator and replaced with 150 μL of Dulbecco’s phosphate buffered saline (DPBS—137 mM NaCl, 2.7 mM KCl, 6.3 mM Na2HPO4, 1.5 mM KH2PO4, 0.5 mM MgCl2, 0.9 mM CaCl2, pH 7.4) containing MTT (1 mg/mL) for 90 minutes at 37°C. In MOLT-4 and L1210, cell suspension was transferred to 1.5 mL microcentrifuge tubes and centrifuged for 10 minutes at 3000 rcf. Following centrifugation, media was removed via gentle pipetting and replaced with 150 μL of DPBS containing MTT (1 mg/mL) for 90 minutes at 37°C. Microcentrifuge tubes were centrifuged again for 15 minutes at 23,500 rcf, and then DPBS containing MTT was removed via a vacuum-powered aspirator. The resultant formazan crystals were solubilized in 500 μL of DMSO and transferred to a 96-well plate in 200 μL duplicates. Absorbance was measured at 570 nm, in a SpectraMax® i3x Multi-Mode Detection Platform (Molecular Devices, San Jose, CA). After background subtraction, % cell viability was calculated as the ratio of absorbance in the presence of test compound to that measured with vehicle alone (X 100).

[2] = target: T2, mENBT1 (slc43a3-encoded mouse ENBT1) (Mus musculus, UniProt A2AVZ9); test: Radiolabelled substrate uptake (oil-stop, 2 s) in HEK293-mslc43a3 cells; assay type: cell-based
T2 construct: Oligonucleotides corresponding to the coding region of SLC43A3 (NM_001278201) or slc43a3 (NM_021398); expressed in transfected cells; HEK293-mslc43a3
T2 sequence (A2AVZ9 1-502): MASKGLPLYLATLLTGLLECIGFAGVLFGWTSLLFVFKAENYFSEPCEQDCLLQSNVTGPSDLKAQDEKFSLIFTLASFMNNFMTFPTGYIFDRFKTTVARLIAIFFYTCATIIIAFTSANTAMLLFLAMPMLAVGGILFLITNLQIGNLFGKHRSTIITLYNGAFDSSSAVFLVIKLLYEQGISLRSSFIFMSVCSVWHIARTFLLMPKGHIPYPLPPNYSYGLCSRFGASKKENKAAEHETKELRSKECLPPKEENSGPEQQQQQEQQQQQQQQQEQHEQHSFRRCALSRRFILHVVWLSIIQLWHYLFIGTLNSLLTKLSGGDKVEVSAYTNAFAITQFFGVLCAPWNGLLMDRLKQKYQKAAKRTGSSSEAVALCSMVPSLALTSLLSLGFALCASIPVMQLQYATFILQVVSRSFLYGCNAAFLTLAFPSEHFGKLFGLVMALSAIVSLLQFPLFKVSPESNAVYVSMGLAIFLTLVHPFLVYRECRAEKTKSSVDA
Description: as §1, §2

HEK293-hSLC43A3 cells = test: MTT cell viability assay, HEK293-hSLC43A3; assay type: cell-based, human
Description: as §3

Sc1ncnc2nc[nH]c12 [6-MP, 6-Mercaptopurine]
6-MP Km relative to adenine Km [1]: 3 fold
6-MP Vmax relative to adenine Vmax [1]: 3 fold
shift in EC50 (increased sensitivity) relative to HEK293-EV cells (HEK293-mslc43a3 cells; HEK293-mslc43a3 vs HEK293-EV): 19 fold
EC50 (HEK293-mslc43a3 cells; Homo sapiens, HEK293-mslc43a3, 48 h, MTT, first-phase EC50 where biphasic): 960 ± 280 nM
6-MP Km relative to adenine Km [2]: 3 fold
6-MP Vmax relative to adenine Vmax [2]: 3 fold
shift in EC50 (increased sensitivity) relative to HEK293-EV cells (HEK293-hSLC43A3 cells; HEK293-hSLC43A3 vs HEK293-EV): 19 fold
EC50 (HEK293-hSLC43A3 cells; Homo sapiens, HEK293-hSLC43A3, 48 h, MTT, first-phase EC50 where biphasic): 990 ± 90 nM
